Patent publication US12098145B2 (Libra Therapeutics, Inc., priority 2022, dated 2024)

Legend:
TRPML1 = target: T1, TRPML1 (Homo sapiens, UniProt Q9GZU1); test: Cellular TRPML1 assay (FLIPR, GCaMP6f calcium read-out); assay type: cell-based; details: HEKT-REx/GCaMP6f/TRPML1 cells, FLIPR TETRA, kinetic response over 300 seconds; read-out: TRPML1 FLIPR pEC50 (converted)
T1 construct: expressed in transfected cells; host or cells: HEK T-REx cells stably expressing GCaMP6f and TRPML1
In short: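 HEK T-REx cells stably expressing TRPML1 and GCaMP6f, seeded 24 h before in Optimem + 0.5% FBS. After ~10 min pre-incubation at room temperature, compounds in Ca2+-free Tyrode's buffer were injected on FLIPR Tetra (final DMSO 0.5%). Calcium fluorescence kinetics followed for 300 s.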

TFEB = TFEB translocation assay (TFEB reporter in U2OS cells, imaging); assay type: cell-based; details: Homo sapiens; U2OS cell line with TFEB reporter, 2 hours incubation, nucleus to cytoplasm ratio, normalized to Torin-1; read-out: TFEB Translocation pEC50 (converted)
Method: Example B: TFEB Translocation Assay
Reporter TFEB: the reporter is fused to a sequence of monomeric red fluorescent protein.
The reporter TFEB have been stably expressed in U2OS cell line and used as read-out.
Experiments were performed in 384 MTP well format. Cells were seeded in 384-w at a density of 4000 cells/well in 20 μl/well complete growth medium without antibiotics. Twenty-four hours later, cells were treated with compounds and incubated for further 2 hours. Then the cells were imaged and assayed for the response to various compounds using the reporter for TFEB expressed in the cells as readout.
The experiments were performed in a 384-well format according to the following procedure: • 24 h after seeding, cell culture medium was carefully removed and replaced with 20 μl of Opti-MEM (30′ incubation at 37° C. before compound addition) • Then, cells were incubated with compounds diluted in Opti-MEM+0.015% Tween 80 at the desired concentration, with the reference molecule (agonist) Torin-1 at a top concentration of 1 μM (max signal), and with the other reference molecule (agonist) MLSA-5 at top concentration of 20 μM for 2 hours at 37° C. and 5% CO2. The final percentage of DMSO was 0.5% in all the conditions. • Staining of the nuclei was obtained by incubating the cells with 24 μM/well of Hoechst 3342 in standard Tyrode's buffer for 15 min at RT • Then the cells were fixed with PFA 4% for 30 min at RT • After three washes with standard Tyrode's buffer, samples were acquired by recording two fluorescence emission channels (DS-red and blue) at 20× magnification and with at least 3 fields of view per well in an Operetta CLS microscope (PerkinElmer). • Image analysis was performed by using Harmony software (PerkinElmer). The image analysis involved the following steps: flat-field illumination correction, nuclei segmentation, cytoplasm segmentation and calculation of intensity fluorescence in the cytosol and nuclei compartments. Measurements of signal intensity ratio (nucleus to cytoplasm) was used to obtain information on the effects of compounds on the TFEB translocation. • Data from image analysis measurements were finally loaded and analyzed for normalization and fitting procedures in Genedata Screener© software. Data Analysis
Feature: Mean translocation ratio (mean/well)
Data normalization: Stimulator—Neutral control
The GeneData Screener method we have used, normalizes the median of the Stimulator control wells (Torin-1) to 100% and the median of the Neutral control wells (DMSO) to 0% Activity[%]=100*(x−<Min>)/(<“Max”>−<Min>)

T1 sequence (Q9GZU1 whole entry): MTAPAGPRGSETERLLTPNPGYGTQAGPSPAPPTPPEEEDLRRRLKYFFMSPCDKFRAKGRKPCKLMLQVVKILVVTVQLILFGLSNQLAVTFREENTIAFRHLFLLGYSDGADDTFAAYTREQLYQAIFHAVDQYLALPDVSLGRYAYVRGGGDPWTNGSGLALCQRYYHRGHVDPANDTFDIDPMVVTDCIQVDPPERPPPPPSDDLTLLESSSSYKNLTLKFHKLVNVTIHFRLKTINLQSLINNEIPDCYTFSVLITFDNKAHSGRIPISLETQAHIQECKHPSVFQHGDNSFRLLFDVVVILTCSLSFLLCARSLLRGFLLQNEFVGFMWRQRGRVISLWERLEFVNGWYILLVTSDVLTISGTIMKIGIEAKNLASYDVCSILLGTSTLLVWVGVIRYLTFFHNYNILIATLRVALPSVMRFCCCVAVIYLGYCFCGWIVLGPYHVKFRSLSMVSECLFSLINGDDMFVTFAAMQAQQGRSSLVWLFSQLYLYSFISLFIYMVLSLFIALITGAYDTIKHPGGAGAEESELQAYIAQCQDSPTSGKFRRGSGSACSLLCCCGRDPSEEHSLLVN

O=C(Nc1ccc(OC2COCC2(F)F)c(F)c1)c1nc(N2CCCC2)oc1CC(F)(F)F (racemic) [Example 71, N-(4-((4,4-difluorotetrahydrofuran-3-yl)oxy)-3-fluorophenyl)-2-(pyrrolidin-1-yl)-5-(2,2,2-trifluoroethyl)oxazole-4-carboxamide]
EC50 (TRPML1): 10 to 1000 nM | EC50 (TFEB): 10 to 1000 nM

O=C(Nc1ccc(OC2CCCC2(F)F)c(F)c1)c1nc(N2CCC(CO)C2)oc1CC(F)(F)F (stereo not shown) [Example 3, N-(4-((2,2-difluorocyclopentyl)oxy)-3-fluorophenyl)-2-(3-(hydroxymethyl)pyrrolidin-1-yl)-5-(2,2,2-trifluoroethyl)oxazole-4-carboxamide]
EC50 (TRPML1): 1000 to 10000 nM | EC50 (TFEB): 1000 to 10000 nM

CC1(C)CN(c2nc(C(=O)Nc3ccc(OC4CCCC4(F)F)c(F)c3)c(CC(F)(F)F)o2)CCO1 (stereo not shown) [Example 4, N-{4-[(2,2-difluorocyclopentyl)oxy]-3-fluorophenyl}-2-(2,2-dimethylmorpholin-4-yl)-5-(2,2,2-trifluoroethyl)-1,3-oxazole-4-carboxamide]
EC50 (TRPML1): 1000 to 10000 nM | EC50 (TFEB): 10 to 1000 nM

O=C(Nc1ccc(OC2CCCC2(F)F)c(F)c1)c1nc(N2CCOCC2)oc1CC(F)(F)F (stereo not shown) [Example 6, N-(4-((2,2-difluorocyclopentyl)oxy)-3-fluorophenyl)-2-morpholino-5-(2,2,2-trifluoroethyl)oxazole-4-carboxamide]
EC50 (TRPML1): 1000 to 10000 nM | EC50 (TFEB): 10 to 1000 nM

O=C(Nc1ccc(OC2CCCC2(F)F)c(F)c1)c1nc(N2CCC3(CCOC3)C2)oc1CC(F)(F)F (stereo not shown) [Example 13, N-(4-((2,2-difluorocyclopentyl)oxy)-3-fluorophenyl)-2-(2-oxa-7-azaspiro[4.4]nonan-7-yl)-5-(2,2,2-trifluoroethyl)oxazole-4-carboxamide]
EC50 (TRPML1): 1000 to 10000 nM | EC50 (TFEB): 1000 to 10000 nM

O=C(Nc1ccc(OC2CCCC2(F)F)c(F)c1)c1nc(N2CCC3(CCC3)C2)oc1CC(F)(F)F (stereo not shown) [Example 15, N-(4-((2,2-difluorocyclopentyl)oxy)-3-fluorophenyl)-2-(6-azaspiro[3.4]octan-6-yl)-5-(2,2,2-trifluoroethyl)oxazole-4-carboxamide]
EC50 (TRPML1): 10 to 1000 nM | EC50 (TFEB): 10 to 1000 nM

O=C(Nc1ccc(OC2CCCC2(F)F)c(F)c1)c1nc(N2CC3(C2)CC(F)(F)C3)oc1CC(F)(F)F (stereo not shown) [Example 17, 2-(6,6-difluoro-2-azaspiro[3.3]heptan-2-yl)-N-(4-((2,2-difluorocyclopentyl)oxy)-3-fluorophenyl)-5-(2,2,2-trifluoroethyl)oxazole-4-carboxamide]
EC50 (TRPML1): 10 to 1000 nM | EC50 (TFEB): 10 to 1000 nM

O=C(Nc1ccc(OC2CCCC2(F)F)c(F)c1)c1nc(N2CCC3(COC3)C2)oc1CC(F)(F)F (stereo not shown) [Example 19, N-{4-[(2,2-difluorocyclopentyl)oxy]-3-fluorophenyl}-2-{2-oxa-6-azaspiro[3.4]octan-6-yl}-5-(2,2,2-trifluoroethyl)oxazole-4-carboxamide]
EC50 (TRPML1): 10 to 1000 nM | EC50 (TFEB): 10 to 1000 nM

CC1(C)CN(c2nc(C(=O)Nc3ccc(OC4CCCC4(F)F)c(F)c3)c(CC(F)(F)F)o2)C1 (stereo not shown) [Example 20, N-(4-((2,2-difluorocyclopentyl)oxy)-3-fluorophenyl)-2-(3,3-dimethylazetidin-1-yl)-5-(2,2,2-trifluoroethyl)oxazole-4-carboxamide]
EC50 (TRPML1): 10 to 1000 nM | EC50 (TFEB): 10 to 1000 nM

O=C(Nc1ccc(OC2CCCC2(F)F)c(F)c1)c1nc(N2CCC3(CC3)C2)oc1CC(F)(F)F (stereo not shown) [Example 21, N-(4-((2,2-difluorocyclopentyl)oxy)-3-fluorophenyl)-2-(5-azaspiro[2.4]heptan-5-yl)-5-(2,2,2-trifluoroethyl)oxazole-4-carboxamide]
EC50 (TRPML1): 10 to 1000 nM | EC50 (TFEB): 10 to 1000 nM

O=C(Nc1ccc(OC2CCCC2(F)F)c(F)c1)c1nc(N2CCCC2)oc1CC(F)(F)F (stereo not shown) [Example 22, N-{4-[(2,2-difluorocyclopentyl)oxy]-3-fluorophenyl}-2-(pyrrolidin-1-yl)-5-(2,2,2-trifluoroethyl)oxazole-4-carboxamide]
EC50 (TRPML1): 10 to 1000 nM | EC50 (TFEB): 10 to 1000 nM

O=C(Nc1cc(F)c(OC2CC3C[C@@H]3C2)c(F)c1)c1nc(N2CC3(CCOCC3)C2)oc1CC(F)(F)F (stereo partly drawn) [Example 188, N-(4-(cis-bicyclo[3.1.0]hexan-3-yloxy)-3,5-difluorophenyl)-2-(7-oxa-2-azaspiro[3.5]nonan-2-yl)-5-(2,2,2-trifluoroethyl)oxazole-4-carboxamide]
EC50 (TFEB): 10 to 1000 nM

O=C(Nc1cc(F)c(OC2CC3C[C@H]3C2)c(F)c1)c1nc(N2CC3(CCOC3)C2)oc1CC(F)(F)F (stereo partly drawn) [Example 189, N-(4-(cis-bicyclo[3.1.0]hexan-3-yloxy)-3,5-difluorophenyl)-2-(6-oxa-2-azaspiro[3.4]octan-2-yl)-5-(2,2,2-trifluoroethyl)oxazole-4-carboxamide]
EC50 (TFEB): 10 to 1000 nM

CCc1oc(N2CC(CC)(CO)C2)nc1C(=O)Nc1cc(F)c(OC2CC3C[C@H]3C2)c(Cl)c1 (stereo partly drawn) [Example 220, N-(4-(cis-bicyclo[3.1.0]hexan-3-yloxy)-3-chloro-5-fluorophenyl)-5-ethyl-2-(3-ethyl-3-(hydroxymethyl)azetidin-1-yl)oxazole-4-carboxamide]
EC50 (TFEB): 10 to 1000 nM

CCc1oc(N2CCCC2)nc1C(=O)Nc1cc(F)c(OC2CC3C[C@H]3C2)c(Cl)c1 (stereo partly drawn) [Example 222, N-(4-(cis-bicyclo[3.1.0]hexan-3-yloxy)-3-chloro-5-fluorophenyl)-5-ethyl-2-(pyrrolidin-1-yl)oxazole-4-carboxamide]
EC50 (TFEB): 10 to 1000 nM

CCc1oc(N2CC(C)(OC)C2)nc1C(=O)Nc1cc(C)c(OC2CC3C[C@H]3C2)c(F)c1 (stereo partly drawn) [Example 226, N-(4-(cis-bicyclo[3.1.0]hexan-3-yloxy)-3-fluoro-5-methylphenyl)-5-ethyl-2-(3-methoxy-3-methylazetidin-1-yl)oxazole-4-carboxamide]
EC50 (TFEB): 10 to 1000 nM

CCCc1oc(N2CCCC2)nc1C(=O)Nc1cc(F)c(OC2CC3C[C@H]3C2)c(F)c1 (stereo partly drawn) [Example 274, N-(4-(cis-bicyclo[3.1.0]hexan-3-yloxy)-3,5-difluorophenyl)-5-propyl-2-(pyrrolidin-1-yl)oxazole-4-carboxamide]
EC50 (TFEB): 10 to 1000 nM

O=C(Nc1cc(F)c(O[C@@H]2C[C@@H]3C[C@@H]3C2)c(F)c1)c1nc(N2CCCC2)oc1CN1CCC1 [Example 306, 5-(azetidin-1-ylmethyl)-N-(4-(cis-bicyclo[3.1.0]hexan-3-yloxy)-3,5-difluorophenyl)-2-(pyrrolidin-1-yl)oxazole-4-carboxamide]
EC50 (TRPML1): 1000 to 10000 nM

CCC1(CC)CN(c2nc(C(=O)Nc3cc(C)c4c(c3)CCN4C3CC4CC4C3)c(CC(F)(F)F)o2)C1 (stereo not shown) [Example 310, N-(1-(bicyclo[3.1.0]hexan-3-yl)-7-methylindolin-5-yl)-2-(3,3-diethylazetidin-1-yl)-5-(2,2,2-trifluoroethyl)oxazole-4-carboxamide]
EC50 (TRPML1): 1000 to 10000 nM

CCC1(CC)CN(c2nc(C(=O)Nc3cc(F)c4c(c3)CCN4C3CC4CC4C3)c(CC(F)(F)F)o2)C1 (stereo not shown) [Example 311, N-(1-(bicyclo[3.1.0]hexan-3-yl)-7-fluoroindolin-5-yl)-2-(3,3-diethylazetidin-1-yl)-5-(2,2,2-trifluoroethyl)oxazole-4-carboxamide]
EC50 (TRPML1): 1000 to 10000 nM

COC1(C)CN(c2nc(C(=O)Nc3cc(F)c4c(c3)CCN4C3CC4CC4C3)c(CC(F)(F)F)o2)C1 (stereo not shown) [Example 312, N-(1-(bicyclo[3.1.0]hexan-3-yl)-7-fluoroindolin-5-yl)-2-(3-methoxy-3-methylazetidin-1-yl)-5-(2,2,2-trifluoroethyl)oxazole-4-carboxamide]
EC50 (TRPML1): 1000 to 10000 nM

CCC1(OC)CN(c2nc(C(=O)Nc3cc(F)c4c(c3)CCN4C3CC4CC4C3)c(CC(F)(F)F)o2)C1 (stereo not shown) [Example 313, N-(1-(bicyclo[3.1.0]hexan-3-yl)-7-fluoroindolin-5-yl)-2-(3-ethyl-3-methoxyazetidin-1-yl)-5-(2,2,2-trifluoroethyl)oxazole-4-carboxamide]
EC50 (TRPML1): 1000 to 10000 nM

O=C(Nc1cc(F)c2c(c1)CCN2C1CC2CC2C1)c1nc(N2CCC3(COC3)C2)oc1CC(F)(F)F (stereo not shown) [Example 314, N-(1-(bicyclo[3.1.0]hexan-3-yl)-7-fluoroindolin-5-yl)-2-(2-oxa-6-azaspiro[3.4]octan-6-yl)-5-(2,2,2-trifluoroethyl)oxazole-4-carboxamide]
EC50 (TRPML1): 1000 to 10000 nM
